The target of this assay is hPAD4 enzyme (Homo sapiens (Human), UniProt Q9UM07). Kind of assay: RFMS2 assay (RapidFire mass spectrometry, TSTGGRQGSHH peptide substrate). Format: biochemical. Conditions: 35 nM recombinant human PAD4, 500 μM TSTGGRQGSHH peptide, 30 minutes at room temperature; read-out: RFMS 2 IC50. Here is the method: Stock compounds were dissolved and stored in 100% DMSO. Compound solutions were prepared via serial dilution at 3-fold intervals in DMSO with top compound concentration at 20 μM in each assay. 0.25 μl of compound solution was transferred from the compound plate to the assay plate by using an acoustic dispenser.
Sequence of hPAD4 enzyme (Q9UM07 whole entry): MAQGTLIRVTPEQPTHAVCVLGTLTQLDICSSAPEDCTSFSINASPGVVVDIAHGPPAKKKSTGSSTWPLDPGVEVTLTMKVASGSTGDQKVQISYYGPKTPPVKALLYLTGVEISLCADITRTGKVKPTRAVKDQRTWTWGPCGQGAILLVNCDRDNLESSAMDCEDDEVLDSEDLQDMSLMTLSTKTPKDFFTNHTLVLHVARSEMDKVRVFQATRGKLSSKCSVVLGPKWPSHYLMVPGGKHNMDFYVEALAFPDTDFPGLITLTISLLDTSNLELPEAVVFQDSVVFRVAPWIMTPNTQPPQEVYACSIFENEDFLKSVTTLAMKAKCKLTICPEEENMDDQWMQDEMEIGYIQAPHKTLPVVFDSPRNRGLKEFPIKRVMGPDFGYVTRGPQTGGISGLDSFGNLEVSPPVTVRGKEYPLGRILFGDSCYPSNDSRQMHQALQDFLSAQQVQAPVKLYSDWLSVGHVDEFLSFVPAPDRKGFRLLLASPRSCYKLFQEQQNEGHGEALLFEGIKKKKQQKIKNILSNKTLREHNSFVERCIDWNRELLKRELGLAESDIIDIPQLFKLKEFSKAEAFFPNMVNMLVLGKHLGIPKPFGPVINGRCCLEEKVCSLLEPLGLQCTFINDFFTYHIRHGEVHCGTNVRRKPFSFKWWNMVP
• Total reaction volume: 25 μl • Assay buffer: […] pH 7.4, 200 mM NaCl, 2 mM CaCl2, 5 mM DTT • 35 nM recombinant human PAD4 • 500 μM TSTGGRQGSHH peptide • 1.2% DMSO • Stop solution: 10% formic acid
Reaction mixtures were incubated at room temperature for 30 minutes. 10 μl each of the reaction mixtures was then mixed with 40 μl of 10% formic acid in a microtiter plate. The plate was frozen at −80° C. before shipping out on dry ice for RapidFire mass spectroscopy analysis.
Thawed samples were loaded onto the Rapid Fire 300 system (Agilent) wherein they were first sipped for 250 ms and then loaded onto a Agilent “C” (C18) cartridge using a mobile phase of water containing 0.09% formic acid/0.01% trifluoroacetic acid for 3000 ms desalting flowing at a rate of 1.5 ml/min. Once the samples were loaded and washed, a mobile phase of acetonitrile containing 0.09% formic acid/0.01% trifluoroacetic acid was used to elute the samples directly onto a Sciex API4000 triple quadrupole mass spectrometer for 3000 ms at a flow rate of 1.25 ml/min.
MRM transitions for substrate and product were monitored in positive ESI mode at m/z=562.3/969.7 and m/z=562.8/541.3 respectively. The dwell time for each transition was set at 100 ms, and the ESI voltage was used at 5500 with a source temperature of 650° C. Extracted ion peaks for each transition were integrated using the Rapid Fire Integrator software.
Compounds having an activity designated as “A” provided an IC50≤10 nM; compounds having an activity designated as “B” provided an IC50 11-100 nM; compounds having an activity designated as “C” provided an IC50 101-500 nM; compounds having an activity designated as “D” provided an IC50 501-1000 nM; compounds having an activity designated as “E” provided an IC50>1000 nM.

Molecules are shown by their SMILES.

Here are results for 28 compounds from patent US20250346592A1 (Celgene Corporation, priority 2022, published 2025).

By IC50 is commonly meant the concentration that inhibits the measured activity by half.

As for `COCC(C)c1ccc2cc(-c3nc4cc5c(cc4n3C)CCN(C[C@@H](C)N)C5=O)n(CC3CC3)c2c1` (single isomer, unassigned) [Example 40], the IC50 was above 1 µM.

As for `COCC(C)c1ccc2cc(-c3nc4cc5c(cc4n3C)CCN(C[C@@H](C)N)C5=O)n(CC3CC3)c2c1` (single isomer, unassigned) [Example 41], the IC50 was in the range of 0.101 to 0.5 µM.

As for `COCC(C)n1c(-c2nc3cc4c(cc3n2C)CCN(C[C@H](N)CF)C4=O)cc2cccc(OC)c21` (single isomer, unassigned) [Example 123a], the IC50 was above 1 µM.

For `COc1cccc2cc(-c3nc4cc5c(cc4n3C)CCN(C[C@H](N)CF)C5=O)n(CC(C)OC)c12` (single isomer, unassigned) [Example 130], the concentration for half-maximal inhibition (IC50) fell in the range of 0.101 to 0.5 µM.

`COc1cccc2cc(-c3nc4cc5c(cc4n3C)CCN(C[C@H](N)CF)C5=O)n(CC(C)OC)c12` (single isomer, unassigned) [Example 131]: the IC50 lay within 0.501 to 1 µM.

On to `Cn1c(-c2cc3cccc(OCCC4CNC(=O)C4)c3n2CC2CC2)nc2cc3c(cc21)CCN(C[C@H](N)CF)C3=O` (single isomer, unassigned) [Example 178], for which the concentration for half-maximal inhibition (IC50) was in the range of 0.101 to 0.5 µM.

With `Cn1c(-c2cc3cccc(OCCC4CNC(=O)C4)c3n2CC2CC2)nc2cc3c(cc21)CCN(C[C@H](N)CF)C3=O` (single isomer, unassigned) [Example 179], the concentration for half-maximal inhibition (IC50) lay within 0.101 to 0.5 µM.

For the compound `Cn1c(-c2cc3cccc(OCC4(C)CNC(=O)C4)c3n2CC2CC2)nc2cc3c(cc21)CCN(C[C@H](N)CF)C3=O` (single isomer, unassigned) [Example 220], the IC50 lay in the range of 0.501 to 1 µM.

Regarding `Cn1c(-c2cc3cccc(OCC4(C)CNC(=O)C4)c3n2CC2CC2)nc2cc3c(cc21)CCN(C[C@H](N)CF)C3=O` (single isomer, unassigned) [Example 221], the 50% inhibitory concentration (IC50) was in the range of 0.101 to 0.5 µM.

Regarding `CCN[C@H](C)CN1CCc2cc3c(cc2C1=O)nc(-c1cc2ccccc2n1CC1CC1)n3C` [Example 2, (R)-2-(1-(cyclopropylmethyl)-1H-indol-2-yl)-6-(2-(ethylamino)propyl)-1-methyl-1,6,7,8-tetrahydro-5H-imidazo[4,5-g]isoquinolin-5-one], the IC50 was in the range of 0.501 to 1 µM.

Turning to `CCCN[C@H](C)CN1CCc2cc3c(cc2C1=O)nc(-c1cc2ccccc2n1CC1CC1)n3C` [Example 4, (R)-2-(1-(cyclopropylmethyl)-1H-indol-2-yl)-1-methyl-6-(2-(propylamino)propyl)-1,6,7,8-tetrahydro-5H-imidazo[4,5-g]isoquinolin-5-one], the IC50 was above 1 µM.

Turning to `Cn1c(-c2cc3ccccc3n2CC2CC2)nc2cc3c(cc21)CCN(CC(N)CC(F)(F)F)C3=O` (stereo not shown) [Example 7, 6-(2-amino-4,4,4-trifluorobutyl)-2-(1-(cyclopropylmethyl)-1H-indol-2-yl)-1-methyl-1,6,7,8-tetrahydro-5H-imidazo[4,5-g]isoquinolin-5-one], the IC50 was above 1 µM.

As to `Cn1c(-c2cc3ccccc3n2CC2CC2)nc2cc3c(cc21)CCN(CC1CNCCN1)C3=O` (stereo not shown) [Example 8, 2-(1-(cyclopropylmethyl)-1H-indol-2-yl)-1-methyl-6-(piperazin-2-ylmethyl)-1,6,7,8-tetrahydro-5H-imidazo[4,5-g]isoquinolin-5-one], the IC50 was above 1 µM.

In the case of `Cc1ccc2cc(-c3nc4cc5c(cc4n3C)CCN(C[C@@H](C)N)C5=O)n(CC3CC3)c2c1C` [Example 16, (R)-6-(2-aminopropyl)-2-(1-(cyclopropylmethyl)-6,7-dimethyl-1H-indol-2-yl)-1-methyl-1,6,7,8-tetrahydro-5H-imidazo[4,5-g]isoquinolin-5-one], the IC50 fell in the range of 0.101 to 0.5 µM.

For `Cc1cccc2cc(-c3nc4cc5c(cc4n3C)CCN(C[C@@H](C)N)C5=O)n(CC3CC3)c12` [Example 17, (R)-6-(2-aminopropyl)-2-(1-(cyclopropylmethyl)-7-methyl-1H-indol-2-yl)-1-methyl-1,6,7,8-tetrahydro-5H-imidazo[4,5-g]isoquinolin-5-one], the IC50 was in the range of 0.101 to 0.5 µM.

Regarding `COc1ccc2cc(-c3nc4cc5c(cc4n3C)CCN(C[C@@H](C)N)C5=O)n(CC3CC3)c2c1` [Example 18, (R)-6-(2-aminopropyl)-2-(1-(cyclopropylmethyl)-6-methoxy-1H-indol-2-yl)-1-methyl-1,6,7,8-tetrahydro-5H-imidazo[4,5-g]isoquinolin-5-one], the IC50 was 0.101 to 0.5 µM.

`CC(C)c1cccc2cc(-c3nc4cc5c(cc4n3C)CCN(C[C@@H](C)N)C5=O)n(CC3CC3)c12` [Example 19, (R)-6-(2-aminopropyl)-2-(1-(cyclopropylmethyl)-7-isopropyl-1H-indol-2-yl)-1-methyl-1,6,7,8-tetrahydro-5H-imidazo[4,5-g]isoquinolin-5-one]: the IC50 is 0.101 to 0.5 µM.

Regarding `C[C@@H](N)CN1CCc2cc3c(cc2C1=O)nc(-c1cc2ccc(C(F)(F)F)cc2n1CC1CC1)n3C` [Example 20, (R)-6-(2-aminopropyl)-2-(1-(cyclopropylmethyl)-6-(trifluoromethyl)-1H-indol-2-yl)-1-methyl-1,6,7,8-tetrahydro-5H-imidazo[4,5-g]isoquinolin-5-one], the half-inhibitory concentration (IC50) is 0.101 to 0.5 µM.

Turning to `C[C@@H](N)CN1CCc2cc3c(cc2C1=O)nc(-c1cc2ccc(F)nc2n1CC1CC1)n3C` [Example 21, (R)-6-(2-aminopropyl)-2-(1-(cyclopropylmethyl)-6-fluoro-1H-pyrrolo[2,3-b]pyridin-2-yl)-1-methyl-1,6,7,8-tetrahydro-5H-imidazo[4,5-g]soquinolin-5-one], the concentration for half-maximal inhibition (IC50) is 0.101 to 0.5 µM.

Turning to `C[C@@H](N)CN1CCc2cc3c(cc2C1=O)nc(-c1cc2ccnc(Cl)c2n1CC1CC1)n3C` [Example 22, (R)-6-(2-aminopropyl)-2-(7-chloro-1-(cyclopropylmethyl)-1H-pyrrolo[2,3-c]pyridin-2-yl)-1-methyl-1,6,7,8-tetrahydro-5H-imidazo[4,5-g]isoquinolin-5-one], the IC50 is above 1 µM.

For `Cc1c(-c2nc3cc4c(cc3n2C)CCN(C[C@@H](C)N)C4=O)n(CC2CC2)c2ccccc12` [Example 23, (R)-6-(2-aminopropyl)-2-(1-(cyclopropylmethyl)-3-methyl-1H-indol-2-yl)-1-methyl-1,6,7,8-tetrahydro-5H-imidazo[4,5-g]isoquinolin-5-one], the IC50 was above 1 µM.

In the case of `C[C@@H](N)CN1CCc2cc3c(cc2C1=O)nc(-c1cc2ccncc2n1CC1CC1)n3C` [Example 24, (R)-6-(2-aminopropyl)-2-(1-(cyclopropylmethyl)-1H-pyrrolo[2,3-c]pyridin-2-yl)-1-methyl-1,6,7,8-tetrahydro-5H-imidazo[4,5-g]isoquinolin-5-one], the IC50 is above 1 µM.

Take `C[C@@H](N)CN1CCc2cc3c(cc2C1=O)nc(-c1cc2ccc(Cl)cc2n1CC1CC1)n3C` [Example 25, (R)-6-(2-aminopropyl)-2-(6-chloro-1-(cyclopropylmethyl)-1H-indol-2-yl)-1-methyl-1,6,7,8-tetrahydro-5H-imidazo[4,5-g]isoquinolin-5-one]: the 50% inhibitory concentration (IC50) was in the range of 0.101 to 0.5 µM.

Take `Cc1ccc2c(c1)cc(-c1nc3cc4c(cc3n1C)CCN(C[C@@H](C)N)C4=O)n2CC1CC1` [Example 26, (R)-6-(2-aminopropyl)-2-(1-(cyclopropylmethyl)-5-methyl-1H-indol-2-yl)-1-methyl-1,6,7,8-tetrahydro-5H-imidazo[4,5-g]isoquinolin-5-one]: the half-maximal inhibitory concentration (IC50) was above 1 µM.

For `C[C@@H](N)CN1CCc2cc3c(cc2C1=O)nc(-c1cc2cccc(C#N)c2n1CC1CC1)n3C` [Example 27, (R)-2-(6-(2-aminopropyl)-1-methyl-5-oxo-5,6,7,8-tetrahydro-1H-imidazo[4,5-g]isoquinolin-2-yl)-1-(cyclopropylmethyl)-1H-indole-7-carbonitrile], the IC50 lay within 0.501 to 1 µM.

Regarding `CCc1cccc2cc(-c3nc4cc5c(cc4n3C)CCN(C[C@@H](C)N)C5=O)n(CC3CC3)c12` [Example 28, (R)-6-(2-aminopropyl)-2-(1-(cyclopropylmethyl)-7-ethyl-1H-indol-2-yl)-1-methyl-1,6,7,8-tetrahydro-5H-imidazo[4,5-g]isoquinolin-5-one], the IC50 lay in the range of 0.101 to 0.5 µM.

As for `Cc1ccc2cc(-c3nc4cc5c(cc4n3C)CCN(C[C@@H](C)N)C5=O)n(CC3CC3)c2c1` [Example 29, (R)-6-(2-aminopropyl)-2-(1-(cyclopropylmethyl)-6-methyl-1H-indol-2-yl)-1-methyl-1,6,7,8-tetrahydro-5H-imidazo[4,5-g]isoquinolin-5-one], the IC50 was 0.101 to 0.5 µM.

As to `C[C@@H](N)CN1CCc2cc3c(cc2C1=O)nc(-c1cc2cccc(F)c2n1CC1CC1)n3C` [Example 30, (R)-6-(2-aminopropyl)-2-(1-(cyclopropylmethyl)-7-fluoro-1H-indol-2-yl)-1-methyl-1,6,7,8-tetrahydro-5H-imidazo[4,5-g]isoquinolin-5-one], the IC50 lay in the range of 0.101 to 0.5 µM.
